Earlier results, collected in patent publication US9278365B2, “Volatile material dispenser and method of emitting a volatile material” (priority 2014, dated 2016).

| Compound | log P (octanol/water partition coefficient) | solubility |
| --- | --- | --- |
| CC(=O)O[C@@H]1C[C@H]2CC[C@]1(C)C2(C)C (racemic) [iso-bornyl acetate] | 4.3 Log P |  |
| OC/C=C/c1ccccc1 [cinnamic alcohol] | 2 Log P |  |
| CC(C=O)Cc1ccc(C(C)(C)C)cc1 (stereo not drawn) [lilial] | 4.4 Log P |  |
| COC(=O)c1ccccc1 [methyl benzoate] |  | 2.1 Log P |
| Cc1ncsc1CCO [sulfurol] | 1.11 Log P |  |
| methy cyclopetenone | 1.29 Log P |  |
